This note sets out measurements from patent publication US12459908B2, “Alpha, beta unsaturated methacrylic esters with anti-inflammatory properties” (Sitryx Therapeutics Limited, priority 2020, dated 2025).

Series [1] deals with IL-1β. Kind of series: THP-1 AlphaLISA IL-1β cytokine inhibition assay (differentiated THP-1 cells). The series is classed as cell-based. The following applies: Homo sapiens, LPS 24 hr then Nigericin 1 hour. The protocol:
Biological Example 1—THP-1 AlphaLISA IL-1β
Measuring Inhibitory Effects on IL-1, Cytokine Output from THP-1s
The cytokine inhibition profiles of compounds of formula (I) were determined in a differentiated THP-1 cell assay. All assays were performed in RPMI-1640 growth medium (Gibco), supplemented with 10% fetal bovine serum (FBS; Gibco), 1% penicillin-streptomycin and 1% sodium pyruvate unless specified otherwise. The IL-1p cytokine inhibition assay was run in a background of differentiated THP-1 cells as described below. All reagents described were from Sigma-Aldrich unless specified otherwise. Compounds were prepared as 10 mM DMSO stocks.
THP-1 cells were expanded as a suspension up to 80% confluence in appropriate growth medium. Cells were harvested, suspended, and treated with an appropriate concentration of phorbol 12-myristate 13-acetate (PMA) over a 72 hr period (37° C./5% CO2).
Following 72 hrs of THP-1 cell incubation, cellular medium was removed and replaced with fresh growth media containing 1% of FBS. Working concentrations of compounds were prepared separately in 10% FBS treated growth medium and pre-incubated with the cells for 30 minutes (37° C./5% CO2). Following the 30 minute compound pre-incubation, THP-1s were treated with an appropriate concentration of LPS and the cells were subsequently incubated for a 24 hr period (37° C./5% CO2). An appropriate final concentration of Nigericin was then dispensed into the THP-1 plates and incubated for 1 hour (37° C./5% CO2) before THP-1 supernatants were harvested and collected in separate polypropylene 96-well holding plates.
Reagents from an IL-1β and IL-6 commercial kit (Perkin Elmer) were prepared and run according to the manufacturer's instructions. Subsequently, fluorescence signal detection in a microplate reader was measured (EnVision® Multilabel Reader, Perkin Elmer).
Percentage inhibition was calculated per cytokine by normalising the sample data to the high and low controls used within each plate (+/−LPS respectively). Percentage inhibition was then plotted against compound concentration and the 50% inhibitory concentration (IC50) was determined from the resultant concentration-response curve.

Series [2] deals with NRF2. Kind of series: NRF2 activation assay (DiscoverX PathHunter NRF2 translocation kit, U2OS cells). The conditions noted are these: Homo sapiens, 6 hours; for Emax: normalised to DMF high control. Type of series: cell-based. The protocol:
Biological Example 2—NRF2 Activation Assay
Measuring Compound Activation Effects on the Anti-Inflammatory Transcription Factor NRF2 in DiscoverX PathHunter NRF2 Translocation Kit
Potency and efficacy of compounds of formula (I) against the target of interest to activate NRF2 (nuclear factor erythroid 2-related factor 2) were determined using the PathHunter NRF2 translocation kit (DiscoverX). The NRF2 translocation assay was run using an engineered recombinant cell line, utilising enzyme fragment complementation to determine activation of the Keap1-NRF2 protein complex and subsequent translocation of NRF2 into the nucleus. Enzyme activity was quantified using a chemiluminescent substrate consumed following the formation of a functional enzyme upon PK-tagged NRF2 translocation into the nucleus.
Additionally, a defined concentration of DMF was used as the ‘High’ control to normalise test compound activation responses to.
U2OS PathHunter eXpress cells were thawed from frozen prior to plating. Following plating, U2OS cells were incubated for 24 hrs (37° C./5% CO2) in commercial kit provided cell medium.
Following 24 hrs of incubation, plated U2OS cells were directly treated with an appropriate final concentration of compound. […]
Following compound treatment, the U2OS plates were incubated for a further 6 hours (37° C./5% CO2) before detection reagent from the PathHunter NRF2 commercial kit was prepared and added to test plates according to the manufacturer's instructions. Subsequently, the luminescence signal detection was measured in a microplate reader (PHERAstar®, BMG Labtech).
Percentage activation was calculated by normalising the sample data to the high and low controls used within each plate (+/−DMF). Percentage activation/response was then plotted against compound concentration and the 50% activation concentration ([…]) was determined from the plotted concentration-response curve.

A short description of series [3]: Hepatocyte stability assay, mouse cryopreserved hepatocytes. The following applies: cryopreserved hepatocytes, Mouse hepatocytes, 10 μM, 60 min, read-out: T½. Type of series: in vitro ADME. An excerpt:
(§1) Biological Example 3—Hepatocyte Stability Assay
(§2) Defrosted cryo-preserved hepatocytes (viability >70%) were used to determine the metabolic stability of a compound via calculation of intrinsic clearance (CIint; a measure of the removal of a compound from the liver in the absence of blood flow and cell binding). Clearance data are particularly important for in vitro work as they can be used in combination with in vivo data to predict the half-life and oral bioavailability of a drug.
(§3) The metabolic stability in hepatocytes assay involves a time-dependent reaction using both positive and negative controls. The cells were pre-incubated at 37° C. and spiked with test compound (and positive control); samples taken at pre-determined time intervals were analysed to monitor the change in concentration of the initial drug compound over 60 minutes. A buffer incubation reaction (with no hepatocytes present) acted as a negative control and two cocktail solutions, containing compounds with known high and low clearance values (verapamil/7-hydroxycoumarin and propranolol/diltiazem), acted as positive controls. • 1. The assay was run with a cell concentration of 0.5×10^6 cells/mL in Leibovitz buffer. • 2. All compounds and controls were run in duplicate. • 3. Compound concentration was 10 μM. • 4. All compounds and controls were incubated with both cells and buffer to show turnover was due to hepatic metabolism. • 5. All wells on the incubation plate had 326.7 μL of either cells or buffer added. • 6. Prior to assay, cell and buffer-only incubation plates were preincubated for 10 mins at 37° C. • 7. The assay was initiated by adding compounds, 3.3 μL of 1 mM in 10% DMSO-90% Buffer; final DMSO concentration is 0.1%. • 8. Samples were taken at regular timepoints (0, 5, 10, 20, 40, 60 min) until 60 mins. • 9. Sample volume was 40 μL and was added to 160 μL of crash solvent (acetonitrile with internal standard) and stored on ice. • 10. At the end of the assay, the crash plates were centrifuged at 3500 rpm for 20 mins at 4° C. • 11. 80 μL of clear supernatant was removed and mixed with 80 μL of deionised water before being analysed by LC-MS/MS.
(§4) Raw LC-MS/MS data was exported to, and analysed in, Microsoft Excel for determination of intrinsic clearance. The percentage remaining of a compound was monitored using the peak area of the initial concentration as 100%. Intrinsic clearance and half-life values were calculated using a graph of the natural log of percentage remaining versus the time of reaction in minutes. Half-life (min) and intrinsic clearance (CIint in μL min^−1 10^−6 cells) values were calculated using the gradient of the graph (the elimination rate constant, k) and Equations 1 and 2.

Series [4] has as its system cryo-preserved hepatocytes. Described as above. The following applies: for Clint: Mouse hepatocytes, 10 μM, 60 min. The series is classed as in vitro ADME.
Description: as §1, §2, §3, §4

Series [5] in a line: Hepatocyte stability assay, human cryopreserved hepatocytes. The series is classed as in vitro ADME. The following applies: cryopreserved hepatocytes, Human hepatocytes, 10 μM, 60 min, read-out: T½.
Description: as §1, §2, §3, §4

For series [6], the system named is cryo-preserved hepatocytes. The description is as above. Type of series: in vitro ADME. The following applies: for Clint: Human hepatocytes, 10 μM, 60 min, numeric values.
Description: as §1, §2, §3, §4

Setting [7] is: compared to 4-octyl itaconate, ethyl 2-(2-chlorobenzyl)acrylate and 2-(2-chlorobenzyl)acrylic acid.

Regarding `C=C(Cc1ccccc1Cl)C(=O)O` [2-(2-chlorobenzyl)acrylic acid, reference compound], in series [1] (numeric values), the IC50 (commonly the concentration that gives 50% inhibition) was above 100 µM. In series [2] (numeric values), the Emax (in general, the maximal effect, on the per cent scale that the assay sets) is 2%. Further, in series [2] (numeric values), the EC50 (as a rule, the concentration needed to bring the measured effect to its halfway point) was above 100 µM. In addition, the half-life at 10 μM came to 11 min in series [3] (numeric values) and 59 min in series [5] (numeric values). Also, the Clint in series [4] (numeric values) amounted to 95 μL min^−1 10^−6 cells; in series [6] it was 21 μL min^−1 10^−6 cells.
`C=C(Cc1nc(Cc2ccc(Cl)cc2)no1)C(=O)OCC(=O)O` [Example 3, 2-((2-((3-(4-chlorobenzyl)-1,2,4-oxadiazol-5-yl)methyl)acryloyl)oxy)acetic acid] showed an IC50 in series [1] (class symbols) of 11 to 20 µM. In series [2] (class symbols), this molecule displayed an EC50 of 11 to 21 µM. For the same molecule, in series [2] (class symbols), the Emax lay in the range of 135 to 165%. In addition, the half-life at 10 μM is above 11 min in series [3] (class symbols) and above 100 min in series [5] (class symbols). Further, the Clint entry in series [4] (class symbols) is “+++ (For Clint (μL min^−1 10^−6 cells; mouse), +++ means <95)”. In addition, the “Stability in mouse hepatocytes compared to comparators” value in series [4] (setting [7]) is on record as “more stable”. For the same molecule, in series [6] (setting [7]), the “Stability in human hepatocytes compared to comparators” value was “more stable”.
`C=C(Cc1ccccc1Cl)C(=O)OCC` [ethyl 2-(2-chlorobenzyl)acrylate, reference compound] returned an IC50 in series [1] (numeric values) above 100 µM. Moreover, the half-life at 10 μM in series [3] (numeric values) and in series [5] (numeric values) was below 3 min each time. Besides, the Clint in series [4] (numeric values) and in series [6] was above 460 μL min^−1 10^−6 cells each time.
